Three compounds from US20230158068A1 (priority 2020, published 2023) can be followed below.

In data set [1] the test system is U937 cells. In words: CD marker expression in PMA treated U937 cells (flow cytometry). It counts as cell-based, human. On the procedure: Human monocytic U937 cells derived from pleural effusion were seeded at 5×10^5 cells/mL in a 24 well plate or on the underside of a culture insert with 3.25×10^5 cells per well with 100 nM phorbol 12-myristate 13-acetate (PMA) (dissolved in DMSO; <1% v/v) in complete RPMI medium (10% v/v FBS, 1% v/v penicillin-streptomycin, 2 mM L-glutamine). Cells were incubated for 72 h at 37° C., 5% v/v CO2 in a humidified incubator to differentiate the cells to mature macrophages. Following PMA incubation, media was replaced with fresh CCM and incubated for a further 24 h rest period. After the 24 h rest phase, U937/MØ were ready for co-culture assembly. U937/MØ cells were prepared in line with when epithelial cells were ready, i.e. day 5 for A549 and day 10 for hAELVi cells.
FIG. 3 illustrates the expression profiles of selected CD markers in PMA treated U937 cells and primary alveolar macrophages (pAM). CD markers are: (A) CD 11a, (B) CD 11b, (C) CD 14, (D) CD 36 and (E) CD 206. U937 cells treated with (0 nM, 5 nM, and 100 nM) PMA for 24 h to-96 h followed by a 24 h rest period in fresh culture medium. Expression of CD markers was measured by flow cytometry and are presented as median fluorescent intensity (MFI±SEM). […]
(Flow cytometry measures light scatter and fluorescence of single cells or particles in a stream.)

Data set [2] concerns U937 cells. Nature of the data set: Phagocytic activity of PMA treated U937 cells. It counts as cell-based, human. The note with it: 72 h, 100 nM PMA differentiation protocol. The text has this:
FIG. 4 illustrates the phagocytic activity of PMA treated U937 cells and primary alveolar macrophages (pAM). Percentage of phagocytic cells (mean±SEM) from PMA treated U937 cells. (n=9) for each time point for U937 cells and n=3 for primary cells.

Data set [3] has as its system U937 cells. Nature of the data set: Morphology of U937 cells with exposure to PMA. It counts as cell-based, human. The note with it: 72 h, 100 nM PMA differentiation protocol. On the procedure: FIG. 5 illustrates the morphology of U937 cells with exposure to PMA. U937 cells were cultured on chamber slides with medium supplemented with either 0 nM, 5 nM or 100 nM PMA and incubated for 24 h, 48 h, 72 h and 96 h followed by a 24 h recovery phase in fresh medium. Non-adherent PMA naive cells required centrifuge preparation. Primary human alveolar macrophages were harvested for morphological comparison. The cells were photographed at ×400 magnification with an inverted light microscope. (50 um scale bar).

For data set [4], the system named is U937 cells. In words: Long-term proliferation of PMA treated U937 cells (Guava ViaCount assay). The format is cell-based, human. The note with it: 100 nM PMA. On the procedure: FIG. 6 illustrates the long-term proliferation of PMA treated U937 cells. […] Cell proliferation was assessed using Guava ViaCount assay via flow cytometry for 10,000 events. Results shown are representative for two repeated experiments performed in triplicate. Viable cells/mL are shown as mean±SD.

Data set [5] deals with differentiated U937 cells (MØ), T I model, T II model. Nature of the data set: CD marker expression in LPS stimulated alveoli models (flow cytometry). The format is cell-based, human. The note with it: 10 ng/mL LPS, 24 h. On the procedure: FIG. 17 illustrates CD marker expressions in LPS stimulated and non-stimulated alveoli models. Differentiated U937 cells (MØ), MØ cells cultured with hAELVi cells (T I model) or A549 cells (T II model) exposed to 10 ng/mL LPS (+LPS) for 24 h. Direct immunofluorescent staining assays for CD 11 b (A &C) and CD 36 (B & D) surface markers were performed using flow cytometry. A total of 5000 gated events were collected for each sample. MFI (median fluorescent intensity) data shown as mean±sd (n=9) for 3 independent models for Dunnett's post hoc test after one-way ANOVA where *#:p<0.005, *** :p<0.0001 vs MØ and MØ+LPS respectively.

In data set [6] the test system is MØ, T I model, T II model. In words: Human cytokine profile of mono-culture and co-culture models in LPS (array membranes). To be noted: LPS 100 ng/mL, 24 h. The format is cell-based. The method, then:
FIG. 18 illustrates human cytokine profile of lower airway for ALI cell models. Detection of spots on array membranes from supernatant collect from mono-culture and co-cultures of: differentiated U937 cells (MØ) with LPS (MØ+LPS), hAELVi TI cells (T I), A549 TII cells (T II), type I co-culture model: hAELVi and MØ (T I model) with LPS (T I model+LPS), type II co-culture model: A549 and MØ (T II model) with LPS (T II model+LPS). Models were untreated or stimulated with 100 ng/mL LPS for 24 h. Controls are shown as positive (green) and negative (red). Data represents four independent Transwell® inserts. […] The data analysed in more detail in below figures.
FIG. 21 illustrates human cytokine profile of lower airway; T I &T I I models in the presence of LPS. […] Data represents mean signal intensity (AU) of each protein spot from the blot detected using chemiluminescence imaging and quantified using imageJ software for four independent Transwell® inserts±sd. […]
FIG. 22 illustrates human cytokine profile of lower airway of mono-culture and co-culture models in LPS. […] Data analysed by two-way ANOVA with Bonferroni post hoc test of non-stimulated cells vs LPS stimulation. […]

Data set [7] deals with differentiated U937 cells (MØ). Nature of the data set: Phagocytic activity of differentiated U937 cells in mono-culture and co-cultures in the presence of LPS. The format is cell-based, human. To be noted: 10 ng/mL LPS, 24 h; both co-culture systems. The method, then: FIG. 23 illustrates a comparison of macrophages in mono-culture and co-cultures phagocytosis of microspheres. Differentiated U937 cells (MØ), MØ cells cultured with hAELVi cells (T I model) or A549 cells (T II model) exposed to 10 ng/mL LPS (+LPS) for 24 h. Phagocytosis assays were performed after 2 h incubation with 1.0 μm FluoSpheres™ Carboxylate-Modified microspheres using fluorescent microscopy. Images at 40× magnification. Scale bar is 100 μm.
FIGS. 24A and 24B illustrate phagocytic activity of differentiated U937 cells (MØ) in mono-culture and co-cultures in the presence of LPS. MØ cells cultured with hAELVi cells (T I model) or A549 cells (T II model) exposed to 10 ng/mL LPS (+LPS) for 24 h. Phagocytosis assays were performed after 2 h incubation with 1.0 μm FluoSpheres™ Carboxylate-Modified microspheres using flow cytometry. Cells were gated for 1000 events (A) per sample. […] Percentage of cells above the gated (R3) threshold (B) of mono and co-cultures. A one way ANOVA was used to determine significance for each treatment group and Tukey's multiple comparison post hoc test employed when* p<0.05, *** : p<0.0001 where n=3 independent models.

The subject of data set [8] is T I model (hAELVi + MØ), T II model (A549 + MØ). Nature of the data set: LDH release from co-cultures with LPS (cell health). The note with it: 10 ng/mL LPS, 24 h; both co-culture models. It counts as cell-based, human. On the procedure: FIGS. 25A and 25B illustrate the comparison of mono-culture and co-culture construction on cell health. Percentage of maximum LDH released into supernatants from cell populations normalised to 0.1% v/v Triton-X 100 positive control. LDH released from co-cultures: (T I) hAELVi and (T II) A549 cells in co-culture with MØ cells were assessed (A). MØ cells cultured with hAELVi cells (T I model) or A549 cells (T II model) were exposed to 10 ng/mL LPS (+LPS) for 24 h (B). A one way ANOVA was used to determine significance for each treatment group and Tukey's multiple comparison post hoc test employed when* p<0.05, p<0.001 Data shown represent n=6 data points±SD of three independent cell model experiments.
Background: LDH leaks from cells whose membrane has failed.

For data set [9], the system named is hAELVi and A549 cells in co-culture with MØ cells. In words: TEER of alveolar epithelial cells in co-culture with LPS. It counts as cell-based, human. To be noted: 10 ng/mL LPS, 24 h. The method, then:
FIGS. 26A and 26B illustrate the impact of LPS on barrier properties of alveolar epithelial cells in co-culture. TEER measurements of (T I) hAELVi and (T II) A549 cells in co-culture with MØ cells. MØ cells cultured with hAELVi cells (T I model) or A549 cells (T II model) were exposed to 10 ng/mL LPS (+LPS) for 24 h. A one-way ANOVA was used to determine significance for each treatment group. Data shown represent n=3 of three independent cell model experiments (p>0.05).

Another data set deals with co-culture models. Nature of the data set: IL-8 secretion of co-culture models after LPS (ELISA). It counts as cell-based, human. The note with it: 100 ng/ml LPS. The method, then:
FIG. 36 illustrates extent of immune response using IL-8 secretion. […] IL-8 levels detected from supernatants of co-culture models cultured under LLI/ALI post exposure to 100 ng/ml LPS. The IL-8 levels were quantified using ELISA assay. […] N=4, * indicates (p<0.05).

Data set [10] has as its system differentiated U937 cells. In words: Phospholipidosis accumulation in differentiated U937 cells in co-culture set ups (HCS LipidTOX Green). The format is cell-based, human. To be noted: 10 μM amiodarone; differentiated U937 cells in three co-culture set ups.
Description: The phospholipid accumulation was assessed using HCS LipidTOX™ Green phospholipidosis detection reagent. Phospholipidosis accumulation was detected in differentiated U937 cells cultured in LLI in three different co-culture set ups: A) Type I/II cells cultured in mixed 10:1 ratio in apical compartment, differentiated U937 (lilac) cells cultured at the basolateral compartment B) Type I/II cells cultured as a layers in a 10:1 ratio in apical compartment, differentiated U937 cells cultured at the basolateral compartment (blue), C) Type I cells cultured in the apical compartment and differentiated U937 cells were seeded on the underside of Transwell® inserts (green). […] A total of 5000 events were acquired on the flow cytometer.

For the compound `CCCCCCCCCCCCCC(=O)O[C@@H]1[C@@H](C)[C@@]2(O)[C@@H](C=C(CO)C[C@]3(O)C(=O)C(C)=C[C@@H]23)[C@@H]2C(C)(C)[C@]12OC(C)=O` [PMA, phorbol-12-myristate-13-acetate], the “expression of CD36 and CD206 (M2 markers)” value in the data set with U937 cells [1] (PMA treated U937 cells) is “low”. For the same compound, the “expression of cell surface markers selected to identify an alveolar macrophage phenotype (CD 11a, CD 11b, CD 14)” value in the data set with U937 cells [1] (U937 cells, 100 nM PMA, 72 h, 24 h rest, compared with primary human alveolar macrophages) is given as “optimally expressed”. The phagocytic functionality entry in the data set with U937 cells [2] is recorded as “same phagocytic functionality of primary human alveolar macrophages”. Moreover, in the data set with U937 cells [3], the cell morphology entry is recorded as “most similar morphology to primary human alveolar macrophages”. Besides, the figures for the cell proliferation result with U937 cells [4] (24 h exposure) and with U937 cells [4] (96 h exposure) were “reduced” and “no”, respectively.

Turning to lipopolysaccharide [LPS], the “macrophage activation (CD11 b expression, absence of CD36 expression)” value in data set [5] is “likely to drive the macrophages to M1 type activation”. The “cytokine markers (signal intensity on array)” value in data set [6] is on record as “elevated”. Moreover, the “ability to phagocytose (1.0 μm microspheres)” value in data set [7] is on record as “retain their ability to phagocytose”. In data set [8], the “cell viability (LDH release)” value is on record as “not adversely affected”. Further, in data set [9], the “barrier properties of the alveolar type I epithelial cells (TEER)” value is reported as “not compromised”. The IL-8 secretion result with co-culture models (all models) was “significantly increased”; in the data set with co-culture models (combination type I and II epithelial models) it was “significantly elevated”.

Regarding `CCCCc1oc2ccccc2c1C(=O)c1cc(I)c(OCCN(CC)CC)c(I)c1` [amiodarone], the phospholipidosis accumulation entry in [10] is “detected”.
